Results: patent US12649734B2, “Bioavailable protein disulfide isomerase inhibitors” (THE CLEVELAND CLINIC FOUNDATION, priority 2020, dated 2026)
Blank lines part the entries; values can stand above or below the molecule they belong to.

Legend:
MM1.S cells [1] = experiment: Cell viability assay (CellTiter-Glo), MM1.S; type: cell-based, human; conditions: Homo sapiens; MM1.S.luc; read-out: IC50 concentration
Method: Cell vi-ability and LD50 for inhibitors were measured in 96 well culture plates (2×10^4 cells/well) after 72 h of treatment using CellTiter-Glo® Luminescent Cell Viability Assay (Promega, Madison, WI, USA). (A) Cell survival assay with MM1.S.luc and BTZ-resistant MM1.S.luc cells. […] (C) Comparison of PDIA1 protein levels in MM1.S.luc and MM1.S.luc BTZ-resistant cells. Band intensity was calculated with Image Lab Version 5.2.1. (D) Cell survival assay with 5TGM1.luc and (E) BTZ-resistant 5TGM1.luc cells. (F) MM1.S cell line was exposed to CCF642-34, and BTZ for 72 h for synergistic drug combination test according to Chou and Talalay method. If the […] remained less than 1, the two drugs were determined as synergistic. […] The number of colony-forming units were plotted for each treatment.
(§1) Cell viability assay: Cell viability was measured in 96 well culture plates (2×10^4 cells/well) using CellTiter-Glo® Luminescent Cell Viability Assay (Promega, Madison, WI, USA) according to the manufacturer's protocol.

[2] = tested on: BTZ-resistant MM1.S cells; experiment: Cell viability assay, BTZ-resistant MM1.S; type: cell-based, human; conditions: Homo sapiens, MM1.S; MM1S.luc BTZ; read-out: IC50 concentration
Method: Cells and reagents: MM1.S-luc-BTZ (BTZ®)-resistant cell line was made in our laboratory. Starting with 1 nM concentration, MM1.S-luc cells were treated with BTZ and exposed continuously for 5 days and removed for 2 days before re-exposure to the drug until the growth of the cells mimicked the parental cell line. Incremental increase of the drug was applied until the concentration of 8 nM was reached. […] BTZ was procured from Millennium Pharmaceuticals Inc. All cell lines that are used in this study and their detailed information are shown in table 1 below.
as §1

MM1.S cells [3] = experiment: ER stress response and apoptosis markers by immunoblotting; type: cell-based, human; conditions: 3 μM, 4 h
Method: FIGS. 6A-6C provide graphs and images showing PDIA1 inhibition by CCF642 analogues induce acute endoplasmic reticulum (ER) stress response and lead to apoptosis. Multiple myeloma cells (MM1.S) were treated with 3 μM of CCF642, -34, -37, -39, -34-A, and Tunicamycin (as a control). The status of ER sensors (XBP-1S, IRE1α oligomerization, and induction of C/EBP homology protein (CHOP)) along with apoptosis markers (cleaved caspase 3 and PARP1) were monitored. (A) MM1.S cells were treated for 4 h with CCF642 and its indicated analogues. (B) MM1.S cells were treated with CCF642-34 in a time course. (C) MM1.S, MM1.S.luc, and BTZ-resistant MM1.S.luc cells were stained with the H2DCFDA ROS detection and then treated with 2.5 μM CCF642-34 up to 4 h.
Immunoblotting: Immunoblotting was performed as described previously (Dallas et al., Blood, 93, 1697-1706 (1999)) using primary antibodies against PDIA1 (Cat #3501), XBP1-S (Cat #12782); IRE1α (Cat #3294), C/EBP homologous protein (CHOP) (Cat #5554), Caspase-3 (Cat #9665), PARP1 (Cat #9542), and GAPDH (Cat #3683) purchased from Cell Signaling Technology, Inc. (Danvers, MA, USA) and used at 1:1000 dilution, unless mentioned otherwise.

MM1.S cells [4] = experiment: RNA-seq gene expression profiling; type: cell-based, human; conditions: 3 μM, 6 h
Method: FIGS. 7A-7H provide graphs showing CCF642-34 is selective for PDIA1 inhibition-induced ER stress response pathway. MM1.S cells were treated with 3 μM of either CCF642 or CCF642-34 for 6 h, and gene expression analysis was performed by RNA sequencing. (A,B) Volcano plots showing CCF642-34 and CCF642 compared to DMSO control. The criteria for differential expression were at least a 2-fold change with p value less than 0.05. The analysis was performed in Originlab, Version 2019b (OriginLab Corporation, Northampton, MA, USA). […] The diagram was generated using a web-based bioinformatics server. (D,E) Hierarchical clusterings with heat map of MM1.S cells treated with vehicle CCF642-34 or CCF642 are shown for response to endoplasmic reticulum stress and unfolded protein response gene sets. (F-H) Heat maps of PERK and ATF6 target genes, Nrf2, and ER-associated degradation (ERAD) pathways are compared between control and inhibitor-treated MM1.S cells. Data analysis was performed using a web-based server and the Broad Institute Morpheus software.
RNA-seq and analysis: MM1.S cells were treated with 3 μM of either CCF642 or CCF642-34 for 6 h, and RNA was purified by using the NucleoSpin RNA kit (Takara Bio USA, Inc.; cat. #740955) according to the manufacturer's instruction. The RNA sequencings were completed as reported previously. Guan et al., Commun. Biol., 3, 1-13 (2020) The RNA-seq data were sub-mitted to the Gene Expression Omnibus (GEO) repository at the National Center for Biotechnology Information (NCBI) archives, with assigned GEO accession number GSE167097.

[5] = Solubility in aqueous buffer (turbidity assay); type: physicochemical
Excerpt: To improve its solubility, potency, and selectivity, the inventors used the CCF642 binding space in the catalytic site for in silico modeling and mapped the binding site to the helix-turn-helix motif composed of the WCGHCK binding site in the aa′ and bb′ domains of the PDIA1 active site (FIG. 4A,B). […] The inventors chose to accomplish this by attaching a 3-carbon flexible linker with a terminal primary amino group to the corresponding phenol followed by coupling to desired L-amino acids (FIGS. 1, 2, 4A). The N-BOC penultimate intermediates were purified using flash silica gel chromatography and then deprotected using 4N HCl in dioxane to generate the corresponding hydrochloride (HCL) salts. The compounds for testing were fully characterized by ^1H, ^13C NMR and high-resolution mass spectroscopy.

[6] = tested on: RPMI-8226 cells vs CD34+ HSPCs derived from healthy bone marrow; experiment: In vitro colony-forming assay, myeloma cells versus normal bone marrow CD34+ cells; type: cell-based, human; conditions: colonies scored on day 14
Method: In vitro colony-forming assays: Mononuclear cells derived from bone marrow or purified CD34+ cells from a healthy donor, cord blood, or MM cell RPMI-8226 were grown in semi-solid methylcellulose media (MethoCult™, H4435; STEMCELL Technologies) in the presence of indicated compounds and concentrations. A total of 10,000/mL normal bone marrow CD34+ cells and 1000/mL RPMI-8226 cells were plat-ed, and colonies were scored on day 14.

PDI = PDI (Homo sapiens, UniProt P07237); conditions: reported previously; cited from earlier work
PDIA1 = PDIA1 (Homo sapiens, UniProt P07237); conditions: cited from earlier work
Chain of PDIA1 (P07237 18-508): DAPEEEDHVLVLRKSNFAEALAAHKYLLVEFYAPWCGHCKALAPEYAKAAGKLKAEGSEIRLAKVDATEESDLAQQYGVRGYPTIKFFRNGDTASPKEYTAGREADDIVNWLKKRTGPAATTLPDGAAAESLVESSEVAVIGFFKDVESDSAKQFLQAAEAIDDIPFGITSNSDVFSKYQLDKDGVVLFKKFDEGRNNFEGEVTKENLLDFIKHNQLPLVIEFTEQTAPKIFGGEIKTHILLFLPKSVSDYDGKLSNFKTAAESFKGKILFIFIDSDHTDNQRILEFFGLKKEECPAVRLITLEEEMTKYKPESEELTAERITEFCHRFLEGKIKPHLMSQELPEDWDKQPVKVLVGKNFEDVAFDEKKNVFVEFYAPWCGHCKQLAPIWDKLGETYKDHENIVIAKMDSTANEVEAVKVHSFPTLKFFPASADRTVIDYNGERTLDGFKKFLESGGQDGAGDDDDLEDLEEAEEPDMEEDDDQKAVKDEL

Chain of PDI (P07237 18-508): as above

IC50 (MM1.S cells [1]): 2 nM | IC50 [2]: 8 nM
SMILES: CC(C)C[C@H](NC(=O)[C@H](Cc1ccccc1)NC(=O)c1cnccn1)B(O)O [Bortezomib, reference compound]

SMILES: O=C(CCC1CNc2ccccc21)NCCCOc1ccc(N2C(=O)/C(=C/c3ccc([N+](=O)[O-])s3)SC2=S)cc1 (stereo not shown) [CCF642-34A]
ER stress response (induction of XBP-1S and CHOP) (MM1.S cells [3]): failed to induce acute ER stress response

SMILES: COc1ccc(N2C(=O)/C(=C\c3ccc([N+](=O)[O-])s3)SC2=S)cc1 [CCF642, reference compound]
number of downregulated genes (MM1.S cells [4]): 257 genes | number of upregulated genes (MM1.S cells [4]): 311 genes | number of genes with changed expression compared to vehicle control (MM1.S cells [4]; 2-fold change, p less than 0.05): 568 genes | solubility [5]: insolubility | potency in restricting colony formation of RPMI-8226 compared to CD34+ HSPCs [6]: ~20 fold | IC50 (PDI): sub-micromolar | binding selectivity of CCF642, as reported previously (PDIA1): off-target bindings in addition to its binding to PDIA1
